From US20110178118A1, “PALONOSETRON FOR THE TREATMENT OF CHEMOTHERAPY INDUCED EMESES” (priority 2002, published 2011)
Read-outs that look alike come from different tables or passages of the source. Marks after values point to notes of the source that are not given here.

Legend:
cisplatin-induced emesis [1] = test: Intravenous palonosetron vs ondansetron in cisplatin-treated dogs; assay type: in vivo; settings: 1.0 mg/kg intravenous; five-hour period following cisplatin 3.0 mg/kg
Description: (§1) The antiemetic effects of intravenously and orally administered palonosetron were assessed in male and female dogs (sexes combined). Antineoplastic agents employed in these experiments included cisplatin (3 mg/kg)), dacarbazine (30 mg/kg), mechlorethamine (0.4 mg/kg) and actinomycin D (0.15 mg/kg). […] Mean numbers of episodes were computed and the statistical significance of differences between treatment groups were determined with Dunnett's t test. Solutions of palonosetron and comparator drugs (ondansetron and granisetron) were prepared in distilled water. Vehicle control groups received distilled water. The therapeutic effects of intravenously and orally administered palonosetron were compared to those of ondansetron and vehicle in cisplatin-treated dogs.

cisplatin-induced emesis [2] = test: Reversal of cisplatin-induced emesis, intravenous antiemetic one hour after cisplatin; assay type: in vivo, dogs; settings: for Emetic Episodes (mean ± SD): observed five hours
Description: as §1, with “In a different study, palonosetron and ondansetron were assessed for their relative abilities to reverse cisplatin-induced emesis. In these experiments dogs received intravenous injections” for “The therapeutic effects”, “palonosetron, ondansetron, or vehicle one hour after the intravenous administration” for “intravenously and orally administered palonosetron were compared to those”, “3.0 mg/kg cisplatin. Each animal was observed continuously for five hours following cisplatin administration for the number of emetic episodes.” for “ondansetron and vehicle in cisplatin-treated dogs.”

cisplatin-induced emesis [3] = test: Anti-emetic effect, oral antiemetic one hour before cisplatin; assay type: in vivo, dogs; settings: for Emetic Episodes (mean ± SD): observed five hours
Description: The antiemetic effects of intravenously and orally administered palonosetron were assessed in male and female dogs (sexes combined). Antineoplastic agents employed in these experiments included cisplatin (3 mg/kg)), dacarbazine (30 mg/kg), mechlorethamine (0.4 mg/kg) and actinomycin D (0.15 mg/kg). […] Mean numbers of episodes were computed and the statistical significance of differences between treatment groups were determined with Dunnett's t test. Solutions of palonosetron and comparator drugs (ondansetron and granisetron) were prepared in distilled water. Vehicle control groups received distilled water. The observation of potency differential was further seen during an experiment in which oral dose-response relationships of palonosetron and ondansetron were compared in cisplatin-treated dogs. Palonosetron, ondansetron or vehicle control were administered by the oral route one hour prior to the administration of cisplatin. Each animal was observed continuously for five hours following cisplatin administration for the number of emetic episodes.

cisplatin-induced emesis [4] = test: Duration of action in cisplatin-treated dogs; assay type: in vivo
Description: Mean numbers of episodes were computed and the statistical significance of differences between treatment groups were determined with Dunnett's t test. Solutions of palonosetron and comparator drugs (ondansetron and granisetron) were prepared in distilled water. Vehicle control groups received distilled water.

[5] = system: Dacarbazine-Induced Emesis; test: Antagonism of dacarbazine-induced emesis; assay type: in vivo, dogs; settings: 2 hours prior to dacarbazine 30.0 mg/kg IV, observed 5 hours
[6] = system: Actinomycin D-Induced Emesis; test: Antagonism of actinomycin D-induced emesis; assay type: in vivo, dogs; settings: 2 hours prior to actinomycin D 0.15 mg/kg IV, observed 5 hours
[7] = system: Mechlorethamine-Induced Emesis; assay type: in vivo, dogs; settings: 2 hours prior to mechlorethamine 0.4 mg/kg IV, observed 5 hours
[8] = intravenous antiemetic 0.01 mg/kg
[9] = intravenous antiemetic 0.03 mg/kg
[10] = intravenous antiemetic 0.1 mg/kg
[11] = intravenous antiemetic 0.3 mg/kg

## Cc1nccn1CC1CCc2c(c3ccccc3n2C)C1=O (centres unmarked) [Ondansetron, reference compound]
cisplatin-induced emesis [1]
  mean number of emetic episodes: 6.83
cisplatin-induced emesis [2]; intravenous dose 1.0 μg/kg one hour after cisplatin 3.0 mg/kg IV
  Emetic Episodes (mean ± SD): 16.16 ± 5.14 ^
cisplatin-induced emesis [2]; intravenous dose 3.0 μg/kg one hour after cisplatin 3.0 mg/kg IV
  Emetic Episodes (mean ± SD): 13.33 ± 4.17 ^
cisplatin-induced emesis [2]; intravenous dose 10.0 μg/kg one hour after cisplatin 3.0 mg/kg IV
  Emetic Episodes (mean ± SD): 13.33 ± 3.01 ^
cisplatin-induced emesis [2]; intravenous dose 30.0 μg/kg one hour after cisplatin 3.0 mg/kg IV
  Emetic Episodes (mean ± SD): 8.33 ± 3.20^
cisplatin-induced emesis [2]; intravenous dose 100.0 μg/kg one hour after cisplatin 3.0 mg/kg IV
  Emetic Episodes (mean ± SD): 4.83 ± 2.40^b
cisplatin-induced emesis [2]; intravenous dose 300.0 μg/kg one hour after cisplatin 3.0 mg/kg IV
  Emetic Episodes (mean ± SD): 1.00 ± 2.00^b
cisplatin-induced emesis [2]; intravenous dose 1000.0 μg/kg one hour after cisplatin 3.0 mg/kg IV
  Emetic Episodes (mean ± SD): 1.16 ± 0.40^b
cisplatin-induced emesis [2]; intravenous, one hour after cisplatin
  statistically minimally effective dose level: 0.1 mg/kg
cisplatin-induced emesis [3]; oral dose 1.0 μg/kg one hour before cisplatin
  Emetic Episodes (mean ± SD): 15.50 ± 3.93
cisplatin-induced emesis [3]; oral dose 3.0 μg/kg one hour before cisplatin
  Emetic Episodes (mean ± SD): 14.83 ± 6.49
cisplatin-induced emesis [3]; oral dose 10.0 μg/kg one hour before cisplatin
  Emetic Episodes (mean ± SD): 12.66 ± 3.01
cisplatin-induced emesis [3]; oral dose 30.0 μg/kg one hour before cisplatin
  Emetic Episodes (mean ± SD): 18.33 ± 8.43
cisplatin-induced emesis [3]; oral dose 100.0 μg/kg one hour before cisplatin
  Emetic Episodes (mean ± SD): 10.50 ± 3.14
cisplatin-induced emesis [3]; oral dose 300.0 μg/kg one hour before cisplatin
  Emetic Episodes (mean ± SD): 3.16 ± 1.32^a
cisplatin-induced emesis [3]; oral dose 1000.0 μg/kg one hour before cisplatin
  Emetic Episodes (mean ± SD): 2.00 ± 2.09^a
cisplatin-induced emesis [3]; oral, one hour before cisplatin
  minimally effective dose (significant reduction in episodes): 0.3 mg/kg
cisplatin-induced emesis [4]; 0.15 mg/kg IV
  pretreatment time before cisplatin with reduced emetic episodes: only after a one-hour pretreatment period
cisplatin-induced emesis [4]; 0.15 mg/kg IV, 1 hr pre-cisplatin 3.0 mg/kg IV
  Emetic Episodes (mean ± SD): 7.83 ± 4.12^b
cisplatin-induced emesis [4]; 0.15 mg/kg IV, 2 hr pre-cisplatin 3.0 mg/kg IV
  Emetic Episodes (mean ± SD): 10.67 ± 5.28
cisplatin-induced emesis [4]; 0.15 mg/kg IV, 4 hr pre-cisplatin 3.0 mg/kg IV
  Emetic Episodes (mean ± SD): 12.67 ± 2.07
cisplatin-induced emesis [4]; 0.15 mg/kg IV, 6 hr pre-cisplatin 3.0 mg/kg IV
  Emetic Episodes (mean ± SD): 14.17 ± 6.79
cisplatin-induced emesis [4]; 0.15 mg/kg IV, 8 hr pre-cisplatin 3.0 mg/kg IV
  Emetic Episodes (mean ± SD): 15.50 ± 7.29
cisplatin-induced emesis [4]; 0.15 mg/kg IV, 10 hr pre-cisplatin 3.0 mg/kg IV
  Emetic Episodes (mean ± SD): 13.83 ± 4.58
cisplatin-induced emesis [4]; 0.15 mg/kg IV, 12 hr pre-cisplatin 3.0 mg/kg IV
  Emetic Episodes (mean ± SD): 22.00 ± 8.32
cisplatin-induced emesis [4]; earlier experiment, 0.3 mg/kg, IV
  protective effects, pretreatment time prior to cisplatin: as long as seven hours
[5]; [8]
  Emetic Episodes (mean ± SD): 11.50 ± 5.51 ^
[5]; [9]
  Emetic Episodes (mean ± SD): 8.17 ± 2.79^
[5]; [10]
  Emetic Episodes (mean ± SD): 4.83 ± 2.48^d
[5]; [11]
  Emetic Episodes (mean ± SD): 1.33 ± 0.82^d
[5]; oral antiemetic 0.03 mg/kg
  Emetic Episodes (mean ± SD): 10.83 ± 2.72 ^
[5]; oral antiemetic 0.1 mg/kg
  Emetic Episodes (mean ± SD): 6.17 ± 5.35^d
[5]; oral antiemetic 0.3 mg/kg
  Emetic Episodes (mean ± SD): 3.00 ± 3.03^d
[5]; oral antiemetic 1 mg/kg
  Emetic Episodes (mean ± SD): 0.17 ± 0.41^d
[6]; [8]
  Emetic Episodes (mean ± SD): 7.67 ± 2.25^d
[6]; [9]
  Emetic Episodes (mean ± SD): 14.67 ± 4.68 ^
[6]; [10]
  Emetic Episodes (mean ± SD): 12.67 ± 3.45 ^
[6]; [11]
  Emetic Episodes (mean ± SD): 5.83 ± 4.45^d
[6]; oral antiemetic 0.03 mg/kg
  Emetic Episodes (mean ± SD): 9.83 ± 7.52^
[6]; oral antiemetic 0.1 mg/kg
  Emetic Episodes (mean ± SD): 10.33 ± 4.84 ^
[6]; oral antiemetic 0.3 mg/kg, one dog dropped
  Emetic Episodes (mean ± SD): 4.20 ± 1.92^d
[6]; oral antiemetic 1 mg/kg
  Emetic Episodes (mean ± SD): 1.50 ± 1.38^d
[7]; [8]
  Emetic Episodes (mean ± SD): 5.83 ± 4.31
[7]; [9]
  Emetic Episodes (mean ± SD): 3.50 ± 2.07^c
[7]; [10]
  Emetic Episodes (mean ± SD): 5.33 ± 4.68
[7]; [11]
  Emetic Episodes (mean ± SD): 4.67 ± 1.63^c
[7]; oral antiemetic 0.03 mg/kg
  Emetic Episodes (mean ± SD): 5.67 ± 2.50
[7]; oral antiemetic 0.1 mg/kg
  Emetic Episodes (mean ± SD): 8.50 ± 3.15
[7]; oral antiemetic 0.3 mg/kg
  Emetic Episodes (mean ± SD): 2.83 ± 3.71^d
[7]; oral antiemetic 1 mg/kg
  Emetic Episodes (mean ± SD): 0.00 ± 0.00^d
